Measured values as given in patent US12552825B2 (Zikani Therapeutics, Inc., priority 2019, dated 2026).
Converted amounts (≈) assume the structure as drawn.

Assays:
Assay type in all cases: cell-based
[1] = tested on: K. pneumoniae MP-648; test: MIC determination by CLSI broth dilution, K. pneumoniae MP-648; details: Klebsiella pneumoniae, MP648, CLSI broth dilution; strain MP-648
[2] = tested on: S. aureus MP-12; test: microbe, parasite or virus in culture; details: Staphylococcus aureus, MP12, read-out: MIC S. aureus MP-12
[3] = tested on: A. baumannii MP-15; test: MIC determination by CLSI broth dilution, A. baumannii MP-15; details: Acinetobacter baumannii, MP15, strain MP-15, read-out: MIC A. baumanii MP-15
[4] = tested on: E. coli MP-4; test: MIC determination by CLSI broth dilution, E. coli MP-4; details: Escherichia coli, MP4, CLSI broth dilution; strain MP-4
[5] = tested on: P. aeruginosa MP-3; test: MIC determination by CLSI broth dilution, P. aeruginosa MP-3; details: Pseudomonas aeruginosa, MP3, strain MP-3

| SMILES | MIC [1] | MIC [2] | MIC [3] | MIC [4] | MIC [5] |
| --- | --- | --- | --- | --- | --- |
| CCN1C[C@H](C)C[C@@](C)(OC)[C@H](O[C@@H]2O[C@H](C)C[C@H](N(C)C)[C@H]2O)[C@@H](C)C(=O)C(C)(C)C(=O)OC[C@H]1CC1CCN(CCO)CC1 [Compound 169, (3R,6R,8R,9R,10R)-9-(((2S,3R,4S,6R)-4-(Dimethylamino)-3-hydroxy-6-methyltetrahydro-2H-pyran-2-yl)oxy)-4-ethyl-3-((1-(2-hydroxyethyl)piperidin-4-yl)methyl)-8-methoxy-6,8,10,12,12-pentamethyl-1-oxa-4-azacyclotridecane-11,13-dione] | 4 to 32 µg/mL (≈ 6.1 to 48.8 µM) | 4 to 32 µg/mL (≈ 6.1 to 48.8 µM) | > 32 µg/mL | < 4 µg/mL | > 32 µg/mL |
| CCN1C[C@H](C)C[C@@](C)(OC)[C@H](O[C@@H]2O[C@H](C)C[C@H](N(C)C)[C@H]2O)[C@@H](C)C(=O)C(C)(C)C(=O)OC[C@H]1CC1CCN(CCOC)CC1 [Compound 170] | < 4 µg/mL | 4 to 32 µg/mL (≈ 5.97 to 47.8 µM) | > 32 µg/mL | < 4 µg/mL | > 32 µg/mL |
| CO[C@]1(C)C[C@@H](C)CN(C)[C@H](CC2CCN(CCO)CC2)COC(=O)C(C)(C)C(=O)[C@H](C)[C@H]1O[C@@H]1O[C@H](C)C[C@H](N(C)C)[C@H]1O [Compound 178] | < 4 µg/mL | > 32 µg/mL | > 32 µg/mL | < 4 µg/mL | > 32 µg/mL |
| CCN1C[C@H](C)C[C@@](C)(OC)[C@H](O[C@@H]2O[C@H](C)C[C@H](N(C)C)[C@H]2O)[C@@H](C)C(=O)C(C)(C)C(=O)OC[C@@H]1CCCN1CCN(C)CC1 [Compound 180] | > 32 µg/mL | > 32 µg/mL | > 32 µg/mL | < 4 µg/mL | > 32 µg/mL |
| CCN1C[C@H](C)C[C@@](C)(OC)[C@H](O[C@@H]2O[C@H](C)C[C@H](N(C)C)[C@H]2O)[C@@H](C)C(=O)C(C)(C)C(=O)OC[C@@H]1CCCN1CCN(c2ccncc2)CC1 [Compound 181] | > 32 µg/mL | > 32 µg/mL | > 32 µg/mL | < 4 µg/mL | > 32 µg/mL |
| CCN1C[C@H](C)C[C@@](C)(OC)[C@H](O[C@@H]2O[C@H](C)C[C@H](N(C)C)[C@H]2O)[C@@H](C)C(=O)C(C)(C)C(=O)OC[C@H]1C=C1CCN(C2Cc3ccccc3C2)CC1 [Compound 191] | < 4 µg/mL | < 4 µg/mL | 4 to 32 µg/mL (≈ 5.51 to 44.1 µM) | < 4 µg/mL | > 32 µg/mL |
| CCN1C[C@H](C)C[C@@](C)(OC)[C@H](O[C@@H]2O[C@H](C)C[C@H](N(C)C)[C@H]2O)[C@@H](C)C(=O)C(C)(C)C(=O)OC[C@H]1C=C1CCN(Cc2ccccc2)CC1 [Compound 192] | 4 to 32 µg/mL (≈ 5.71 to 45.7 µM) | < 4 µg/mL | 4 to 32 µg/mL (≈ 5.71 to 45.7 µM) | < 4 µg/mL | > 32 µg/mL |
| CCN1C[C@H](C)C[C@@](C)(OC)[C@H](O[C@@H]2O[C@H](C)C[C@H](N(C)C)[C@H]2O)[C@@H](C)C(=O)C(C)(C)C(=O)OC[C@H]1[C@H](O)CCN(C)CC(F)(F)F [Compound 193, (3S,6R,8R,9R,10R)-9-(((2S,3R,4S,6R)-4-(dimethylamino)-3-hydroxy-6-methyltetrahydro-2H-pyran-2-yl)oxy)-4-ethyl-3-((R)-1-hydroxy-3-(methyl(2,2,2-trifluoroethyl)amino)propyl)-8-methoxy-6,8,10,12,12-pentamethyl-1-oxa-4-azacyclotridecane-11,13-dione] | > 32 µg/mL | > 32 µg/mL | > 32 µg/mL | 4 to 32 µg/mL (≈ 5.85 to 46.8 µM) | > 32 µg/mL |
| CCN1C[C@H](C)C[C@@](C)(OC)[C@H](O[C@@H]2O[C@H](C)C[C@H](N(C)C)[C@H]2O)[C@@H](C)C(=O)C(C)(C)C(=O)OC[C@H]1[C@H](O)CCN(C)Cc1ccccc1 [Compound 194] | < 4 µg/mL | 4 to 32 µg/mL (≈ 5.78 to 46.2 µM) | 4 to 32 µg/mL (≈ 5.78 to 46.2 µM) | < 4 µg/mL | > 32 µg/mL |
| CO[C@]1(C)C[C@@H](C)CN(C)[C@H](/C=C/CN(C)Cc2ccc(F)cc2)COC(=O)C(C)(C)C(=O)[C@H](C)[C@H]1O[C@@H]1O[C@H](C)C[C@H](N(C)C)[C@H]1O [Compound 195] | 4 to 32 µg/mL (≈ 5.9 to 47.2 µM) | 4 to 32 µg/mL (≈ 5.9 to 47.2 µM) | 4 to 32 µg/mL (≈ 5.9 to 47.2 µM) | < 4 µg/mL | > 32 µg/mL |
